In ChEMBL document CHEMBL4184141, “Investigating the Antibacterial Activity of Biphenylthiazoles against Methicillin- and Vancomycin-Resistant Staphylococcus aureus (MRSA and VRSA)” (J Med Chem, 2017):
≈ marks a conversion by molar mass, not a printed value.

Assays:
Staphylococcus aureus [1] = test: Synergistic antibacterial activity against vancomycin-resistant Staphylococcus aureus VRS10 after 20 hrs in presence of vancomycin by checkerboard assay; format: functional; conditions: VRS10, 20 h
HRT-18 cell line = test: Cytotoxicity against human HRT18 cells up to 64 microg/ml after 6 hrs by MTS assay; format: cell-based; conditions: hrt-18, 6 h
Staphylococcus aureus [2] = test: Potentiation of vancomycin-induced antibacterial activity against vancomycin-resistant Staphylococcus aureus VRS10 assessed as fold reduction in vancomycin MIC at 0.5 times MIC after 20 to 22 hrs; format: functional
Staphylococcus aureus [3] = test: Antibacterial activity against methicillin-resistant Staphylococcus aureus NRS119 up to 20 hrs by broth microdilution assay; format: functional; conditions: NRS119, 20 h
Staphylococcus aureus [4] = test: Antibacterial activity against vancomycin-resistant Staphylococcus aureus VRS12 up to 20 hrs by broth microdilution assay; format: functional; conditions: VRS12, 20 h
Staphylococcus aureus [5] = test: Bactericidal activity against vancomycin-resistant Staphylococcus aureus VRS11a up to 18 hrs by broth microdilution assay; format: functional; conditions: read-out: MBC99.9
Staphylococcus aureus [6] = test: Bactericidal activity against vancomycin-resistant Staphylococcus aureus VRS10 up to 18 hrs by broth microdilution assay; format: functional; conditions: VRS10, 18 h, read-out: MBC99.9
Staphylococcus aureus [7] = test: Antibacterial activity against vancomycin-resistant Staphylococcus aureus VRS11a up to 20 hrs by broth microdilution assay; format: functional
Staphylococcus aureus [8] = test: Potentiation of vancomycin-induced antibacterial activity against vancomycin-resistant Staphylococcus aureus VRS10 assessed as reduction in vancomycin MIC after 20 hrs by checkerboard assay; format: functional
Staphylococcus aureus [9] = test: Bactericidal activity against Staphylococcus aureus RN4220 up to 18 hrs by broth microdilution assay; format: functional; conditions: RN4220, 18 h, read-out: MBC99.9
Staphylococcus aureus [10] = test: Antibacterial activity against methicillin-resistant Staphylococcus aureus USA300 infected in Caenorhabditis elegans AU37 harboring (sek-1(km4);glp-4(bn2)I) mutant assessed as reduction in bacterial burden at 20 ug/ml after 18 hrs by microscopic analysis relative to control; format: functional; parameters: scale not given: the % may be the effect or the level left
Staphylococcus aureus [11] = test: Bactericidal activity against vancomycin-resistant Staphylococcus aureus VRS12 up to 18 hrs by broth microdilution assay; format: functional; conditions: VRS12, 18 h, read-out: MBC99.9
Staphylococcus aureus [12] = test: Bactericidal activity against methicillin-resistant Staphylococcus aureus USA400 NRS123 up to 18 hrs by broth microdilution assay; format: functional; conditions: USA400 NRS123, 18 h, read-out: MBC99.9
[13] = Selectivity index, ratio of cytotoxic concentration for human HRT18 cells to MIC for methicillin-resistant Staphylococcus aureus; format: toxicity; conditions: read-out: Selectivity Index
Staphylococcus aureus [14] = test: Antibacterial activity against methicillin-resistant Staphylococcus aureus 2658 RCMB up to 20 hrs by broth microdilution assay; format: functional
Pseudomonas aeruginosa = test: Antibacterial activity against Pseudomonas aeruginosa ATCC 15442 up to 20 hrs by broth microdilution assay; format: functional; conditions: ATCC 15442, 20 h
Staphylococcus aureus [15] = test: Antibacterial activity against methicillin-resistant Staphylococcus aureus USA400 NRS123 up to 20 hrs by broth microdilution assay; format: functional; conditions: USA400 NRS123, 20 h
Staphylococcus aureus [16] = test: Potentiation of vancomycin-induced antibacterial activity against vancomycin-resistant Staphylococcus aureus VRS10 assessed as vancomycin MIC after 20 hrs by checkerboard assay; format: functional; conditions: VRS10, 20 h
Enterococcus faecium = test: Antibacterial activity against vancomycin-resistant Enterococcus faecium ATCC 700221 up to 20 hrs by broth microdilution assay; format: functional; conditions: ATCC 700221, 20 h
Staphylococcus aureus [17] = test: Bactericidal activity against methicillin-resistant Staphylococcus aureus NRS119 up to 18 hrs by broth microdilution assay; format: functional; conditions: NRS119, 18 h, read-out: MBC99.9
Staphylococcus aureus [18] = test: Antibacterial activity against Staphylococcus aureus RN4220 up to 20 hrs by broth microdilution assay; format: functional; conditions: RN4220, 20 h
Staphylococcus aureus [19] = test: Antibacterial activity against vancomycin-resistant Staphylococcus aureus VRS10 up to 20 hrs by broth microdilution assay; format: functional; conditions: VRS10, 20 h

## Cc1nc(-c2ccc(-c3ccccc3)cc2)sc1-c1ccnc(NN2CCN(C)CC2)n1
Staphylococcus aureus [1]
  MIC: 4 µg/mL
HRT-18 cell line
  Activity: Non-Toxic
Staphylococcus aureus [2]
  fold change (FC): 128
Staphylococcus aureus [3]
  MIC: 4 µg/mL (≈ 9.04 µM)
Staphylococcus aureus [4]
  MIC: 8 µg/mL (≈ 18.1 µM)
Staphylococcus aureus [5]
  MBC: 8 µg/mL (≈ 18.1 µM)
Staphylococcus aureus [6]
  MBC: 8 µg/mL (≈ 18.1 µM)
Staphylococcus aureus [7]
  MIC: 8 µg/mL (≈ 18.1 µM)
Staphylococcus aureus [8]
  fractional inhibitory concentration index (FICI): 0.51 - 0.56
Staphylococcus aureus [9]
  MBC: 8 µg/mL (≈ 18.1 µM)
Staphylococcus aureus [10]
  Activity: 46%
Staphylococcus aureus [11]
  MBC: 8 µg/mL (≈ 18.1 µM)
Staphylococcus aureus [12]
  MBC: 4 µg/mL (≈ 9.04 µM)
[13]
  selectivity ratio: 16
Staphylococcus aureus [14]
  MIC: 0.78 µg/mL (≈ 1.76 µM)
Pseudomonas aeruginosa
  MIC: > 64 µg/mL
Staphylococcus aureus [15]
  MIC: 4 µg/mL (≈ 9.04 µM)
Staphylococcus aureus [16]
  MIC: 4 to 8 µg/mL
Enterococcus faecium
  MIC: > 64 µg/mL
Staphylococcus aureus [17]
  MBC: 4 µg/mL (≈ 9.04 µM)
Staphylococcus aureus [18]
  MIC: 4 µg/mL (≈ 9.04 µM)
Staphylococcus aureus [19]
  MIC: 8 µg/mL (≈ 18.1 µM)
